# Experimental data as given in US5770734A, “N-substituted-2-aminoquinolines useful for treating hypofunction of the cholinergic system” (American Home Products Corporation, priority 1992, dated 1998).
# Read-outs that look alike come from different tables or passages of the source.
# Tests used:
# [1] = biological target: T1, M1 muscarinic receptor (Rattus norvegicus, UniProt P08482); assay: M1 receptor binding ([^3 H]-pirenzepine); set-up: species or system rat (male Sprague-Dawley); settings: Table 1; rat brain tissue, [^3 H]PZ 0.5 nM; read-out: ^3 H-Pirenzepine M1 IC50
# T1 sequence (P08482 1-460): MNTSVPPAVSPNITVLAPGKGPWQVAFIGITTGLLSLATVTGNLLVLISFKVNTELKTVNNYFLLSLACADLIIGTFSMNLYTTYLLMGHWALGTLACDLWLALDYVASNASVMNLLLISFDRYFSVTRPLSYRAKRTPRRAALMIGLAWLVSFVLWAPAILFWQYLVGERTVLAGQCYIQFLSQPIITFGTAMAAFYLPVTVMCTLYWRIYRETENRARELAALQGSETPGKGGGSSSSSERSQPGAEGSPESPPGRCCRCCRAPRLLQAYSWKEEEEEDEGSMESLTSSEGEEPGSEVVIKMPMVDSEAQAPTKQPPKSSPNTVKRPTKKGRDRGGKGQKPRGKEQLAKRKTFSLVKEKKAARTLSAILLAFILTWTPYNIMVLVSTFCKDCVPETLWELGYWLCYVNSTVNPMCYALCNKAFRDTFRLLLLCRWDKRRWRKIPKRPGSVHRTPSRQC
# Experimental: Compounds are tested for their ability to affect M1 muscarinic binding through use of [^3 H]-pirenzepine ([^3 H]PZ) as a prototypic M1 receptor ligand. Male Sprague-Dawley (Charles River) rats are used. Dose selection is typically in the concentration range of 10^-9 to 10^-4 M. Test and reference compounds are dissolved and diluted in water or ethanol and are then added to the assay buffer. The appropriate vehicle is added to the assay buffer for control testing.
# The rats (approximately 300 gm body weight) have free access to food and water and are housed in groups of four to six. On the test day, the rats are euthanized by decapitation and brain tissue is dissected and homogenized using a hand-held teflon-coated pestle, in 20 volumes of 0.32M sucrose (20 strokes at 4° C.). After centrifugation (747×g for 10 minutes at 4° C.), the resultant supernatant is decanted and recentrifuged (18677×g for 20 minutes at 4° C.). The resultant pellet is resuspended in the original volume of 0.32M sucrose and frozen. After thawing, the suspension is diluted (1:1 v/v) with 10 mM Na2 HPO4 /KH2 PO4 buffer (pH=7.4). [^3 H]PZ (0.5 nM, 0.04 μCi) is then incubated with a 100 μl sample of the tissue suspension in the above buffer (1 ml final volume, including a 10 μl sample of test compound or vehicle). […] After 60 minutes of incubation at 25° C. (in the dark), the binding is terminated by vacuum filtration onto Whatman GF/B filters (pre-soaked for 60 minutes in 0.1% (w/v) polyethylenimine to reduce non-specific binding). After three washes with the previously mentioned buffer (4° C., 3 ml/wash), the vacuum is allowed to run for two minutes before the filter-trapped radioactivity is assayed by liquid scintillation spectroscopy.
# Data are presented as the percent inhibition ([control-test]/control×100%) or enhancement ([test-control]/control×100%) of [^3 H]PZ binding by the test or reference compound. The IC50 value (the drug concentration which causes a 50% inhibition of specific [^3 H]PZ binding) is calculated through the use of the EDOSE program (with probit transformation written by a person for use in STAT80). Increases in [^3 H]PZ are reported as percent increase (versus control) for a given test drug concentration.
# [2] = biological target: T2, M2 receptors (Rattus norvegicus, UniProt P10980); assay: biochemical; format: binding; settings: read-out: ^3 H-QNB M2 IC50
# T2 sequence (P10980 1-466): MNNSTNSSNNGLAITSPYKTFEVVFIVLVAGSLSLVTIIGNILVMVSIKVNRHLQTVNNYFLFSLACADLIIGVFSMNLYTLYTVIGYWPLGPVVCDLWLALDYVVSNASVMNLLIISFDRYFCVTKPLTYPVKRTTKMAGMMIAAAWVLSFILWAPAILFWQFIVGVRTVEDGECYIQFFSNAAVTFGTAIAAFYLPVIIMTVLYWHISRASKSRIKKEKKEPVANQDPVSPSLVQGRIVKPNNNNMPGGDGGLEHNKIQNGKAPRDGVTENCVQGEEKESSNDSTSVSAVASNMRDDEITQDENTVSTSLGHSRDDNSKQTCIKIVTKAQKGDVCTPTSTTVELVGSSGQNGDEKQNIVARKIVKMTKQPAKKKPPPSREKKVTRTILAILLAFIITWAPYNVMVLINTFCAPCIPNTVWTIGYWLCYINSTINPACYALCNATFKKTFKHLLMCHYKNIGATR
# [3] = test system: M2 receptors; assay: biochemical; format: binding; settings: Table 1; ratio of M2 IC50 to M1 IC50
# [4] = test system: scopolamine-induced hyperactivity, a proposed muscarinic M1 -mediated effect; assay: Scopolamine-induced hyperactivity (locomotor activity); format: in vivo, rat; set-up: Total activity: unit not given here
# Experimental: Compounds were evaluated for the ability to attenuate scopolamine-induced hyperactivity, a proposed muscarinic M1 -mediated effect. Animals were permitted to habituate for 30 minutes in locomotor activity chambers (Digiscan, Omnitech; Columbus, Ohio) in which infrared detectors were used to measure movement in 3 axes. The animals were then injected i.p. with vehicle alone, scopolamine alone (1.7 mg/kg) or both scopolamine and one dose of the test compound. Animals were then replaced in the chambers and locomotor activity was measured for an additional 1 hour period. Total activity measures (vertical+horizintal movements) were collected and statistically analyzed in four 15 minute periods.
# [5] = test system: Scopolamine-impaired Radial Arm Maze; assay: Scopolamine-impaired Radial Arm Maze; format: in vivo, rat (male Sprague-Dawley)
# Excerpt: Male Sprague-Dawley (Charles River) rats on a 23-hour food deprivation schedule were trained in an eight arm radial maze with all arms baited. Each session consisted of two maze exposures, with a time limit of 300 seconds for each exposure. After four correct choices (first exposure), each animal was removed from the maze for one hour, then returned with only the remaining four arms baited (second exposure). Choice errors, consisting of delay errors (re-entry into any of the four arms chosen during the first exposure) and current errors (re-entry into any of the four arms chosen during the second exposure), as well as total errors were recorded. Durations for each exposure were also recorded. Statistical analysis was performed using a one-way ANOVA with Dunnett's t-test comparisons. Scopolamine (0.3 mg/kg, S.C.) and the compound of Example 1 (3,10 mg/kg, I.P,.) were administrered simultaneously 30 minutes prior to the test. All compounds were solubilized in phosphate buffered saline.
# [6] = test system: scopolamine-induced memory loss; settings: cited from earlier work
# [7] = test system: memory loss; settings: cat, rat, and monkey; muscarinic antagonist; cited from earlier work
# [8] = test system: scopolamine-induced memory loss; settings: rats; cited from earlier work
# [9] = test system: Alzheimer's patients and healthy elderly patients; settings: cited from earlier work; for clinical efficacy: human, in vivo
# [10] = test system: scopolamine-induced memory loss; settings: monkeys; cited from earlier work
# [11] = scopolamine + Example 1 3.0 mg/kg I.P., N=11
# [12] = scopolamine + Example 1 10.0 mg/kg I.P., N=12
# [13] = scopolamine alone 0.3 mg/kg S.C., N=12
molecule,measurement,setting,value
"Cc1cc(NCCCN2CCOCC2)nc2ccccc12 [Example 1, 4-Methyl-N-[3-(4-morpholinyl)propyl]-2-quinolinamine (E)-2-butenedioate 1:1 hydrate]",IC50,[1],1.2 µM
same,IC50,[2],69.3 µM
same,M2/M1,[3],58
same,attenuation of scopolamine hyperactivity,"[4]; 30 and 54 mg/kg i.p., 30 and 45 minutes post-injection",produced an attenuation at 30 and 45 minutes post-injection that did not differ from the scopolamine-or vehicle-only controls
same,minimal effective dose,"[4]; Rattus norvegicus, ip, attenuation of scopolamine (1.7 mg/kg) hyperactivity, i.p., read-out: minimum effective dose",30 mg/kg
same,"in vivo M1 agonist activity, less effective than oxotremorine",[4]; relative to oxotremorine,100 fold
same,Total activity,"[4]; scopolamine + Example 1 30 mg/kg i.p., 15 min, N=10",3792
same,Total activity,"[4]; scopolamine + Example 1 30 mg/kg i.p., 30 min, N=10",2069
same,Total activity,"[4]; scopolamine + Example 1 30 mg/kg i.p., 45 min, N=10",1839
same,Total activity,"[4]; scopolamine + Example 1 30 mg/kg i.p., 60 min, N=10",1697
same,Total activity,"[4]; scopolamine + Example 1 54 mg/kg i.p., 15 min, N=10",3602
same,Total activity,"[4]; scopolamine + Example 1 54 mg/kg i.p., 30 min, N=10",1899
same,Total activity,"[4]; scopolamine + Example 1 54 mg/kg i.p., 45 min, N=10",1722
same,Total activity,"[4]; scopolamine + Example 1 54 mg/kg i.p., 60 min, N=10",1535
same,effect on scopolamine impairment,[5]; 3.0 mg/kg I.P.,non-significantly reduced this scoplamine impairment
same,effect on scopolamine impairment,[5]; 10 mg/kg I.P.,had no effect
same,effect on increased time measures caused by scopolamine,"[5]; 3, 10 mg/kg I.P.",largely unaffected
same,cognitive impairments seen after scopolamine treatment (conclusion),"[5]; rat, in vivo",can reduce the cognitive impairments seen after scopolamine treatment
same,"Mean Error, Current",[5]; [11],0.55
same,"Mean Error, Delay",[5]; [11],1.77
same,"Mean Error, Total",[5]; [11],1.14
same,Mean Time 1.4,[5]; [11],90.10 s
same,Mean Time 5-,[5]; [11],121.73 s
same,Mean Time Total,[5]; [11],105.91 s
same,"Mean Error, Current",[5]; [12],0.33
same,"Mean Error, Delay",[5]; [12],2.75
same,"Mean Error, Total",[5]; [12],1.54
same,Mean Time 1.4,[5]; [12],113.8 s
same,Mean Time 5-,[5]; [12],148.1 s
same,Mean Time Total,[5]; [12],130.92 s
CN1[C@@H]2C[C@@H](OC(=O)[C@H](CO)c3ccccc3)C[C@H]1[C@@H]1O[C@@H]12 [Scopolamine],effect on total activity,"[4]; scopolamine 1.7 mg/kg, 15, 30, 45 and 60 minutes post-injection",significantly elevated total activity at all four time points
same,Total activity,"[4]; scopolamine alone 1.7 mg/kg i.p., first experiment (Example 1), 15 min, N=9",4349
same,Total activity,"[4]; scopolamine alone 1.7 mg/kg i.p., first experiment (Example 1), 30 min, N=9",2816
same,Total activity,"[4]; scopolamine alone 1.7 mg/kg i.p., first experiment (Example 1), 45 min, N=9",2638
same,Total activity,"[4]; scopolamine alone 1.7 mg/kg i.p., first experiment (Example 1), 60 min, N=9",1858
same,Total activity,"[4]; scopolamine alone 1.7 mg/kg i.p., second experiment (oxotremorine), 15 min, N=9",5486
same,Total activity,"[4]; scopolamine alone 1.7 mg/kg i.p., second experiment (oxotremorine), 30 min, N=9",4720
same,Total activity,"[4]; scopolamine alone 1.7 mg/kg i.p., second experiment (oxotremorine), 45 min, N=9",3718
same,Total activity,"[4]; scopolamine alone 1.7 mg/kg i.p., second experiment (oxotremorine), 60 min, N=9",3510
same,effect on delay and total errors,"[5]; scopolamine 0.3 mg/kg S.C., compared to vehicle",produced a significant impairment in both delay and total errors
same,"Mean Error, Current",[5]; [13],1.0
same,"Mean Error, Delay",[5]; [13],2.80
same,"Mean Error, Total",[5]; [13],1.90
same,Mean Time 1.4,[5]; [13],87.25 s
same,Mean Time 5-,[5]; [13],169.80 s
same,Mean Time Total,[5]; [13],128.50 s
same,memory loss in normal humans,[6]; muscarinic antagonist,can be artificially induced
same,memory loss in animals,[7],can be artificially induced
COC(=O)C1=CCCN(C)C1 [arecoline],reversal of scopolamine-induced deficit,[8],can be reversed
same,clinical efficacy,[9],"neither physostigmine nor arecoline have clinical efficacy due to undesirable side-effects, a short duration of action and a narrow active dose range"
CNC(=O)Oc1ccc2c(c1)[C@]1(C)CCN(C)[C@@H]1N2C [physostigmine],reversal of scopolamine-induced deficit,[6]; humans,can be reversed
same,reversal of scopolamine-induced deficit,[10],can be reversed
same,clinical efficacy,[9],"neither physostigmine nor arecoline have clinical efficacy due to undesirable side-effects, a short duration of action and a narrow active dose range"
lecithin,improvement on cognitive tests,[9]; Alzheimer's patients and healthy elderly patients,No significant improvement was observed on any cognitive test
